Data reported in patent US20260070945A1, “MACROCYCLIC IMMUNOMODULATORS” (Bristol-Myers Squibb Company, priority 2022, published 2026).
*1 amine or outer side, *2 acyl side, *3 side chain or, on linkers, in order; H or OH if unused. Where a SMILES comes first, the peptide text is derived from it. Bridges are numbered along the chain shown (N, C = ends). [ ]: non-standard residue; d: D form. The star is where a group is joined. ξ: configuration not given here. Phe(3-CF3) = N[C@@H](Cc1cccc(C(F)(F)F)c1)C(=O)O; Ala(morpholin-4-yl) = N[C@@H](CN1CCOCC1)C(=O)O; Phe(4-COOH) = N[C@@H](Cc1ccc(C(=O)O)cc1)C(=O)O; Bip = N[C@@H](Cc1ccc(-c2ccccc2)cc1)C(=O)O; Phe(3-Me) = Cc1cccc(C[C@H](N)C(=O)O)c1; γGlu = O=C(O)[C@H](CCC(=O)[*:2])N[*:1]; NH(CH2)12COOH = O=C(O)CCCCCCCCCCCCN*; Val(3-OH) = CC(C)(O)[C@H](N)C(=O)O; 4Pal = N[C@@H](Cc1ccncc1)C(=O)O; Cha = N[C@@H](CC1CCCCC1)C(=O)O; Cit = NC(=O)NCCC[C@H](N)C(=O)O; Ile(3ξ) = CCC(C)[C@H](N)C(=O)O; NMeN = CN[C@@H](CC(N)=O)C(=O)O; Thr(3ξ) = CC(O)[C@H](N)C(=O)O; Carboxymethyl = O=C(O)C*; NMeA = CN[C@@H](C)C(=O)O; Orn = NCCC[C@H](N)C(=O)O; Aun = NCCCCCCCCCCC(=O)O; Dab = NCC[C@H](N)C(=O)O; AEEA = NCCOCCOCC(=O)O

target: T1, PD-1/PD-L1 interaction (PE-labeled human PD-L1-Ig binding to Jurkat cell line over-expressing human PD-1) (Homo sapiens, UniProt Q15116); test: Jurkat-PD-1 Cell Binding High-Content Screening Assay (CBA); conditions: Jurkat-hPD-1 cells, PE-labeled PD-L1-Ig 20 nM final; read-out: Jurkat HPD1 PDL1 IC50
T1 construct: expressed in transfected cells; host or cells: Jurkat
T1 sequence (Q15116 25-288): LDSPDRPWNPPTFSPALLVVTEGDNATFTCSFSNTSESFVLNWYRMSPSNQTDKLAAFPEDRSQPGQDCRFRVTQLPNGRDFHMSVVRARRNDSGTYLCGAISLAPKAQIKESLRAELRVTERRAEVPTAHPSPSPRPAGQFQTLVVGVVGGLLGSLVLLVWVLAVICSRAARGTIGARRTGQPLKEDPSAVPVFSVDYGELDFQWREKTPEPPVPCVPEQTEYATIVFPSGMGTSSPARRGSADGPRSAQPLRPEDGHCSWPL
Method in brief: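 Compound is added first to the PD-1-expressing Jurkat cells and held 2 h at 37 °C in serum-containing DMEM. The fluorescent PD-L1 fusion follows at 20 nM final for 1 h. Fixed, Hoechst-stained cells are then imaged for bound label.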

Row | Compound | IC50
1 | CC(C)C[C@@H]1NC(=O)[C@H](Cc2c[nH]c3ccccc23)NC(=O)[C@H](CC(=O)O)NC(=O)[C@H](Cc2ccc(C(=O)O)cc2)NC(=O)[C@H](Cc2ccc(OCC(=O)O)cc2)NC(=O)CSC[C@@H](C(=O)N[C@@H](CCCN)C(=O)NCCOCCOCC(=O)NCCCCCCCCCCC(=O)O)NC(=O)[C@H](CO)NC(=O)[C@H](C(C)C)NC(=O)[C@H](CC2CCCCC2)NC(=O)[C@H](CCCN)NC(=O)[C@@H](CC(C)C)NC(=O)[C@H](C)N(C)C(=O)[C@H](C(C)C)NC(=O)[C@H](Cc2ccc(-c3ccccc3)cc2)NC1=O [Example 2138] ({CH2CO}-Y(Carboxymethyl)[Phe(4-COOH)]DWL[Bip]V[NMeA][dL][Orn][Cha]VSC[Orn][AEEA][Aun]-OH; thioether N-14) | 0.0142 µM
2 | Cc1cccc(C[C@@H]2NC(=O)[C@H](CC(=O)O)NC(=O)[C@H](Cc3ccc(OCC(=O)O)cc3)NC(=O)[C@H](CCCNC(=N)N)NC(=O)CSC[C@@H](C(=O)N(C)[C@@H](CC(N)=O)C(=O)NCCCCCCCCCCC(=O)O)NC(=O)[C@H](C(C)O)NC(=O)[C@H](C(C)C)NC(=O)[C@H](CC3CCCCC3)NC(=O)[C@H](CCN)NC(=O)[C@@H](CC(C)C)NC(=O)[C@H](C)N(C)C(=O)[C@H](C(C)C)NC(=O)[C@H](Cc3ccc(-c4ccccc4)cc3)NC(=O)[C@H](C(C)C)NC2=O)c1 (stereo partly drawn) [Example 2381] ({CH2CO}-RY(Carboxymethyl)D[Phe(3-Me)]V[Bip]V[NMeA][dL][Dab][Cha]V[Thr(3ξ)]C[NMeN][Aun]-OH; thioether N-14) | 0.0338 µM
3 | CC(C)C[C@@H]1NC(=O)[C@H](Cc2c[nH]c3ccccc23)NC(=O)[C@H](CC(=O)O)NC(=O)[C@H](Cc2ccncc2)NC(=O)[C@H](Cc2ccc(OCC(=O)O)cc2)NC(=O)CSC[C@@H](C(=O)N[C@@H](CCN)C(=O)NCCCCCCCCCCC(=O)O)NC(=O)[C@H](CO)NC(=O)[C@H](C(C)C)NC(=O)[C@H](CC2CCCCC2)NC(=O)[C@H](CCN)NC(=O)[C@@H](CC(C)C)NC(=O)[C@H](C)N(C)C(=O)[C@H](C(C)C)NC(=O)[C@H](Cc2ccc(-c3ccccc3)cc2)NC1=O [Example 1083] ({CH2CO}-Y(Carboxymethyl)[4Pal]DWL[Bip]V[NMeA][dL][Dab][Cha]VSC[Dab][Aun]-OH; thioether N-14) | 0.0157 µM
4 | CC(=O)NCCCC[C@@H]1NC(=O)[C@H](C(C)(C)O)NC(=O)[C@H](CC2CCCCC2)NC(=O)[C@H](CCN)NC(=O)[C@@H](CC(C)C)NC(=O)[C@H](C)N(C)C(=O)[C@H](CCCNC(N)=O)NC(=O)[C@H](Cc2ccc(-c3ccccc3)cc2)NC(=O)[C@H](Cc2ccc(C(=O)O)cc2)NC(=O)[C@H](Cc2cccc(C(F)(F)F)c2)NC(=O)[C@H](CC(=O)O)NC(=O)[C@H](Cc2ccc(OCC(=O)O)cc2)NC(=O)[C@H](Cc2ccc(C(=O)O)cc2)NC(=O)CSC[C@@H](C(=O)N[C@@H](CCN)C(=O)NCCOCCOCC(=O)N[C@@H](CCC(=O)NCCOCCOCC(=O)NCCCCCCCCCCCCC(=O)O)C(=O)O)NC1=O [Example 1159] ({CH2CO}-[Phe(4-COOH)]Y(Carboxymethyl)D[Phe(3-CF3)][Phe(4-COOH)][Bip][Cit][NMeA][dL][Dab][Cha][Val(3-OH)]K(Ac)C[Dab][AEEA][γGlu][AEEA]-{NH(CH2)12COOH}; thioether N-14) | 0.0464 µM
5 | CC(C)C[C@H]1NC(=O)[C@H](C)N(C)C(=O)[C@H](Cc2ccc(O)cc2)NC(=O)[C@H](Cc2ccc(-c3ccccc3)cc2)NC(=O)[C@H](C(C)C)NC(=O)[C@H](Cc2c[nH]c3ccccc23)NC(=O)[C@H](CC(=O)O)NC(=O)[C@H](Cc2ccc(OCC(=O)O)cc2)NC(=O)[C@H](C(C)O)NC(=O)CSC[C@@H](C(=O)N[C@H](CC(N)=O)C(=O)NCCCCCCCCCCC(=O)O)NC(=O)[C@H](CCCN)NC(=O)[C@H](C(C)C)NC(=O)[C@H](CC2CCCCC2)NC(=O)[C@H](CCN)NC1=O (stereo partly drawn) [Example 2242] ({CH2CO}-[Thr(3ξ)]Y(Carboxymethyl)DWV[Bip]Y[NMeA][dL][Dab][Cha]V[Orn]C[dN][Aun]-OH; thioether N-14) | 0.114 µM
6 | CCC(C)[C@@H]1NC(=O)[C@H](Cc2ccc(-c3ccccc3)cc2)NC(=O)[C@H](CC(C)C)NC(=O)[C@H](Cc2c[nH]c3ccccc23)NC(=O)[C@H](CC(=O)O)NC(=O)[C@H](Cc2ccc(C(=O)O)cc2)NC(=O)[C@H](Cc2ccc(OCC(=O)O)cc2)NC(=O)CSC[C@@H](C(=O)N[C@@H](CC(N)=O)C(=O)NCCOCCOCC(=O)NCCCCCCCCCCC(=O)O)NC(=O)[C@H](CO)NC(=O)[C@H](C(C)(C)O)NC(=O)[C@H](CC2CCCCC2)NC(=O)[C@H](CCN)NC(=O)[C@@H](CC(C)C)NC(=O)[C@H](C)N(C)C1=O (stereo partly drawn) [Example 1409] ({CH2CO}-Y(Carboxymethyl)[Phe(4-COOH)]DWL[Bip][Ile(3ξ)][NMeA][dL][Dab][Cha][Val(3-OH)]SCN[AEEA][Aun]-OH; thioether N-14) | 0.0237 µM

Other lines, results leading:

Row | IC50 | Compound
7 | 0.0113 µM | CCC(C)[C@@H]1NC(=O)[C@H](Cc2ccc(-c3ccccc3)cc2)NC(=O)[C@H](CC(C)C)NC(=O)[C@H](Cc2c[nH]c3ccccc23)NC(=O)[C@H](CC(=O)O)NC(=O)[C@H](Cc2ccc(C(=O)O)cc2)NC(=O)[C@H](Cc2ccc(OCC(=O)O)cc2)NC(=O)CSC[C@@H](C(=O)N[C@@H](CC(N)=O)C(=O)NCCOCCOCC(=O)N[C@@H](CCN)C(=O)NCCCCCCCCCCC(=O)O)NC(=O)[C@H](CO)NC(=O)[C@H](C(C)C)NC(=O)[C@H](CC2CCCCC2)NC(=O)[C@H](CCN)NC(=O)[C@@H](CC(C)C)NC(=O)[C@H](C)N(C)C1=O (stereo partly drawn) [Example 2079] ({CH2CO}-Y(Carboxymethyl)[Phe(4-COOH)]DWL[Bip][Ile(3ξ)][NMeA][dL][Dab][Cha]VSCN[AEEA][Dab][Aun]-OH; thioether N-14)
8 | 0.0111 µM | Cc1cccc(C[C@@H]2NC(=O)[C@H](CC(=O)O)NC(=O)[C@H](Cc3ccc(OCC(=O)O)cc3)NC(=O)[C@H](Cc3ccncc3)NC(=O)CSC[C@@H](C(=O)N[C@@H](CCN)C(=O)NCCCCCCCCCCC(=O)O)NC(=O)[C@H](CO)NC(=O)[C@H](CO)NC(=O)[C@H](CC3CCCCC3)NC(=O)[C@H](CCN)NC(=O)[C@@H](CC(C)C)NC(=O)[C@H](C)N(C)C(=O)[C@H](Cc3ccc(OCC(=O)O)cc3)NC(=O)[C@H](Cc3ccc(-c4ccccc4)cc3)NC(=O)[C@H](Cc3ccc(OCC(=O)O)cc3)NC2=O)c1 [Example 2454] ({CH2CO}-[4Pal]Y(Carboxymethyl)D[Phe(3-Me)]Y(Carboxymethyl)[Bip]Y(Carboxymethyl)[NMeA][dL][Dab][Cha]SSC[Dab][Aun]-OH; thioether N-14)
9 | 0.0038 µM | CC(C)C[C@@H]1NC(=O)[C@H](Cc2c[nH]c3ccccc23)NC(=O)[C@H](CC(=O)O)NC(=O)[C@H](Cc2ccc(C(=O)O)cc2)NC(=O)[C@H](Cc2ccc(OCC(=O)O)cc2)NC(=O)CSC[C@@H](C(=O)N[C@@H](CCN)C(=O)NCCOCCOCC(=O)NCCCCCCCCCCC(=O)O)NC(=O)[C@H](CCCNC(N)=O)NC(=O)[C@H](C(C)(C)O)NC(=O)[C@H](CC2CCCCC2)NC(=O)[C@H](CCN)NC(=O)[C@@H](CC(C)C)NC(=O)[C@H](C)N(C)C(=O)[C@H](C(C)C)NC(=O)[C@H](Cc2ccc(-c3ccccc3)cc2)NC1=O [Example 1122] ({CH2CO}-Y(Carboxymethyl)[Phe(4-COOH)]DWL[Bip]V[NMeA][dL][Dab][Cha][Val(3-OH)][Cit]C[Dab][AEEA][Aun]-OH; thioether N-14)
10 | 0.0094 µM | CC(C)C[C@@H]1NC(=O)[C@H](Cc2c[nH]c3ccccc23)NC(=O)[C@H](CC(=O)O)NC(=O)[C@H](Cc2ccncc2)NC(=O)[C@H](Cc2ccc(OCC(=O)O)cc2)NC(=O)CSC[C@@H](C(=O)N[C@@H](CCN)C(=O)NCCCCCCCCCCC(=O)O)NC(=O)[C@H](CCCN)NC(=O)[C@H](C(C)C)NC(=O)[C@H](CC2CCCCC2)NC(=O)[C@H](CCN)NC(=O)[C@@H](CC(C)C)NC(=O)[C@H](C)N(C)C(=O)[C@H](C(C)C)NC(=O)[C@H](Cc2ccc(-c3ccccc3)cc2)NC1=O [Example 1210] ({CH2CO}-Y(Carboxymethyl)[4Pal]DWL[Bip]V[NMeA][dL][Dab][Cha]V[Orn]C[Dab][Aun]-OH; thioether N-14)
11 | 0.0086 µM | CC(C)C[C@H]1NC(=O)[C@H](C)N(C)C(=O)[C@H](CCCNC(N)=O)NC(=O)[C@H](Cc2ccc(-c3ccccc3)cc2)NC(=O)[C@H](Cc2ccc(C(=O)O)cc2)NC(=O)[C@H](Cc2cccc(C(F)(F)F)c2)NC(=O)[C@H](CC(=O)O)NC(=O)[C@H](Cc2ccc(OCC(=O)O)cc2)NC(=O)[C@H](CN2CCOCC2)NC(=O)CSC[C@@H](C(=O)N[C@@H](CCN)C(=O)NCCCCCCCCCCCCC(=O)O)NC(=O)[C@H](CCC(=O)O)NC(=O)[C@H](C(C)C)NC(=O)[C@H](CC2CCCCC2)NC(=O)[C@H](CCN)NC1=O [Example 1155] ({CH2CO}-[Ala(morpholin-4-yl)]Y(Carboxymethyl)D[Phe(3-CF3)][Phe(4-COOH)][Bip][Cit][NMeA][dL][Dab][Cha]VEC[Dab]-{NH(CH2)12COOH}; thioether N-14)

same assay, conditions: PE-labeled PD-L1-Ig 20 nM final, Jurkat-hPD-1 cells; read-out: Jurkat HPD1 PDL1 IC50

Row | IC50 | Compound
12 | 0.009 µM | CC(=O)NCCCC[C@@H]1NC(=O)[C@H](C(C)(C)O)NC(=O)[C@H](CC2CCCCC2)NC(=O)[C@H](CCN)NC(=O)[C@@H](CC(C)C)NC(=O)[C@H](C)N(C)C(=O)[C@H](CCC(N)=O)NC(=O)[C@H](Cc2ccc(-c3ccccc3)cc2)NC(=O)[C@H](Cc2ccc(OCC(=O)O)cc2)NC(=O)[C@H](Cc2cccc(C(F)(F)F)c2)NC(=O)[C@H](CC(=O)O)NC(=O)[C@H](Cc2ccc(OCC(=O)O)cc2)NC(=O)[C@H](CC(C)C)NC(=O)CSC[C@@H](C(=O)N[C@@H](CCN)C(=O)NCCCCCCCCCCCCC(=O)O)NC1=O [Example 2626] ({CH2CO}-LY(Carboxymethyl)D[Phe(3-CF3)]Y(Carboxymethyl)[Bip]Q[NMeA][dL][Dab][Cha][Val(3-OH)]K(Ac)C[Dab]-{NH(CH2)12COOH}; thioether N-14)
